Results published in patent US4973675A, “Hybrid nitrosoureidoanthracyclines having antitumor activity” (University of Tennessee Research Center, priority 1989, dated 1990).
Entries after “also recorded” stand apart in the source; their conditions may differ. Where two headings read alike, the source gives them in different places.

Tests used:
murine L1210 lymphocytes = test: DNA alkaline elution filter assay, DNA damage in murine L1210 lymphocytes; type: cell-based; conditions: L1210
From the text: (§1) By means of the DNA alkaline elution filter assay technique, it is possible to assess the nature of damage induced in DNA by exposure to drugs and other agents. Depending on the assay conditions, DNA lesions can be quantified as direct strand breaks, DNA-DNA interstrand crosslinks, and protein-associated strand breaks and crosslinks. The action of akylating-type drugs on DNA typically results in a predominant formation of direct DNA single-strand breaks and DNA-DNA crosslinks. DNA intercalating agents show a preponderance of protein-associated DNA damage, detectable as protein-associated single-strand breaks and DNA-protein crosslinks.
(§2) The nature of nitrosoureidoanthracycline-induced DNA damage in murine L1210 and human CLL lymphocytes was assessed by means of the alkaline elution filter technique. Murine L1210 leukemic lymphocytes, like P388/S lymphocytes, are known to contain high levels of topoisomerase II.
(§3) *All concentrations 1 μM, 1hr incubation. Each entry represents the
(§4) mean of at least two experiments, frequency per 10^6 nucleotides;
(§5) statistically significant increase above background underlined. DB, direc
(§6) (nonenzymatic) DNA breaks; PAB, proteinassociated DNA cleavage; DDCL,
(§7) interstrand DNA crosslinks; DPCL, DNAprotein crosslinks.

[1] = tested on: plasmid PC15 supercoiled DNA; test: DNA unwinding assay (interference with DNA topoisomerase I-mediated unwinding; drug-DNA intercalation); type: biochemical
From the text: DNA unwinding assays were used to measure the ability of a test drug to interfere with DNA topoisomerase I-mediated unwinding of plasmid PC15 supercoiled DNA. DNA topoisomerase I controls the topology of double-stranded DNA and is itself not inhibited by DNA intercalating agents. Rather, intercalating agents cause distortion of the torsional angle between adjacent DNA strand components and thereby interfere with the ability of topoisomerase I to convert supercoiled DNA into relaxed forms. Accordingly, this assay is taken as the definitive test of drug-DNA intercalation.
Drugs were tested at 4 concentrations over a 125-fold concentration range. […] These compounds are 2-chloroethylurea derivatives of daunorubicin and adriamycin, respectively (i.e. not nitrosoureas, but chemical intermediates from which the nitrosoureas were derived).

[2] = tested on: murine L1210 leukemia cells; test: Clonogenic assay with cultured murine L1210 leukemia cells, 1 h drug exposure (LD90); type: cell-based; conditions: for clonogenic cell kill: L1210, 1 hour exposure; for IC90: Mus musculus, L1210, 1 hr drug exposure, read-out: L1210 LD90 (dose killing 90% of clonogens)
Method: (§8) Culture and bioassay conditions were as described in Cancer Chemotherapy Pharmacology 20:277 (1987) "Comparative Effects of Adriamycin and DNA-nonbinding Analogues on DNA, RNA, and Protein Synthesis in Vitro", Israel et al., except that cell counts were determined by hemocytometer rather than by automated cell counting.
+Dose killing 90% of clonogens, 1hr. drug exposure.

murine P388 leukemia = test: In vivo antitumor activity vs. murine P388 (P388/S) leukemia; design: species or system murine (B6D2F1 males); conditions: for Long-term survivors / Median increase in lifespan / Median survival / Net mean percent weight change, day 7 / Range of deaths (dying animals): ip
From the text: Initial studies utilized a multiple dose schedule, with drug administered once daily on days 1, 2, 3 and 4. […] The marked activity of AD 312 in this system has been confirmed in multiple separate experiments.
Additional studies were done with AD 312 vs. murine P388/S under more demanding conditions of assay.
^a Summary results of 4 separate experiments. B6D2F1 males; 1 ×

DNA topoisomerase II = test: Drug-stimulated topoisomerase II-mediated DNA cleavage assay (end-labeled PMC41 DNA); type: biochemical; conditions: for enhancement of topoisomerase II-mediated DNA cleavage: 625-fold concentration range; for DNA topoisomerase II-inhibitory and alkylating activity: summary of biochemical studies
From the text: FIGS. 5A and 5B are a photographic reproduction of the results of drug-stimulated topoisomerase II-mediated DNA cleavage assays performed on various compounds, including compounds of the present invention.
DNA intercalation is a necessary but not a sufficient requirement for DNA topoisomerase II-mediated DNA cleavage. Accordingly, determination of drug-induced enzyme inhibition requires direct assay with isolated topoisomerase II. These assays involve determination of drug-enhanced topoisomerase II-mediated cleavage of PMC41 DNA appropriately end-labeled with [α-^32 P]dATP. As better seen in FIG. 5B, lane B, purified topoisomerase II, under the assay conditions, causes fragmentation of the DNA (background cleavage), as indicated by the radioautographic appearance of bands of cleaved DNA having differing mass values.

[3] = Chemical stability / autodegradation to oxazolidinone (HPLC); type: physicochemical
From the text: FIGS. 2A and 2B are reproductions of HPLC printouts showing autodegration of N-2-chloroethylnitrosoureidoadriamycin.
Again, depending upon the specific compound, similar results were seen when compounds were exposed to aqueous media or even maintained in the dry state in a vacuum desiccator. Of importance, all daunorubicin urea and nitrosourea products, regardless of the specific alkyl or aryl substituent, afforded the same anthracycline degradation product; similarly, all adriamycin ureas and nitrosoureas afforded the same other degradation material.
Epirubicin (4'-epiadriamycin) is an example of such a starting material.

human CLL lymphocytes = test: DNA alkaline elution filter assay, DNA damage in human CLL lymphocytes; type: cell-based; conditions: for DD-CL, interstrand DNA crosslinks / DP-CL, DNA-protein crosslinks: CLL, 1 μM, 1 hr incubation
From the text: as §1, §2, §3, §4, §5, §6, §7
B-cell type lymphocytes freshly obtained from patients with chronic lymphocytic leukemia (CLL) show undetectable levels of topoisomerase II.

[4] = tested on: human CEM leukemic lymphocytes; test: Growth inhibition of human CEM leukemic lymphocyte suspension cultures, 48 h continuous drug exposure (ID50); type: cell-based; conditions: for growth inhibitory activity: CEM in vitro; for IC50: Homo sapiens, Lymphocyte, CEM, 48 hr continuous drug exposure (Table 2), read-out: ID50 (the source's name)
Method: as §8

[5] = Solubility in water or saline; type: physicochemical
Method: Accordingly, the compounds are formulated for administration by dissolving the compound in a pharmaceutically acceptable non-toxic carrier which contains a surfactant. The present inventors employ a formulation of 10% Cremaphor EL (a polyhydroxylated castor oil derivative) available from BASF Chemicals, 10% ethanol and 80% aqueous media (sterile water or saline solution). That quantity of the compound desired for establishing an effective dose is dissolved in a 1:1 mixture of Cremaphor EL and ethanol. Thereafter, sufficient aqueous medium is added with stirring to develop a final formulation containing 80% aqueous medium. This formulation is administered parenterally.

## COc1cccc2c1C(=O)c1c(O)c3c(c(O)c1C2=O)C[C@@](O)(C(=O)CO)C[C@@H]3O[C@H]1C[C@H](NC(=O)N(CCCl)N=O)[C@H](O)[C@H](C)O1 [AD 347, 2-chloroethylnitrosoureidoadriamycin]
Murine L1210 lymphocytes
  pattern of DNA damage: pattern of DNA damage consistent with both topoisomerase II inhibition and DNA-alkylatingaction
[1]; 0 = no intercalation, 9 = very strong intercalation
  relative strength of drug-DNA intercalation (arbitrary scale): 8
[1]; 4 concentrations, 125-fold range
  interference with topoisomerase I-mediated conversion of supercoiled DNA / intercalation: the ability of these compounds to intercalate, a prerequisite for topoisomerase II inhibition, is clearly established
[2]
  clonogenic cell kill: essentially equipotent
  IC90: 580 nM
Murine P388 leukemia; P388/S, 16.0 mg/kg/day×4
  increase in life span: > 500%
  survival at 60 days: 57%
Murine P388 leukemia; 2.0 mg/kg qd 1-4 (Table 7)
  Long-term survivors: 0/7
  Median increase in lifespan: +70%
  Median survival: 17 days
  Net mean percent weight change, day 7: +8%
  Range of deaths (dying animals): 16 to 18 days
Murine P388 leukemia; 4.0 mg/kg qd 1-4 (Table 7)
  Long-term survivors: 0/7
  Median increase in lifespan: +90%
  Median survival: 19 days
  Net mean percent weight change, day 7: +2%
  Range of deaths (dying animals): 18 to 21 days
Murine P388 leukemia; 8.0 mg/kg qd 1-4
  Long-term survivors: 0/7
  Median increase in lifespan: +120%
  Median survival: 22 days
  Net mean percent weight change, day 7: +2%
  Range of deaths (dying animals): 19 to 24 days
Murine P388 leukemia; 12.0 mg/kg qd 1-4
  Median increase in lifespan: +160%
  Median survival: 26 days
  Net mean percent weight change, day 7: +2%
  Range of deaths (dying animals): 22 to 37 days
Murine P388 leukemia; 12.0 mg/kg qd 1-4, sacrifice day 60
  Long-term survivors: 2/7
Murine P388 leukemia; 16.0 mg/kg qd 1-4
  Median increase in lifespan: > +500%
  Net mean percent weight change, day 7: -3%
  Range of deaths (dying animals): 26 to 31 days
Murine P388 leukemia; 16.0 mg/kg qd 1-4, sacrifice day 60
  Long-term survivors: 4/7
DNA topoisomerase II
  enhancement of topoisomerase II-mediated DNA cleavage: no saturation of background cleavage
  DNA topoisomerase II-inhibitory and alkylating activity: clearly establish the DNA topoisomerase II-inhibitory activity and alkylating activity
[3]; HPLC, chloroform-methanol, overnight in the cold where stated
  autodegradation: a second signal was clearly evident
Human CLL lymphocytes; CLL B-cell lymphocytes
  pattern of DNA damage: some level of protein-associated DNA damage in these cells, but also affords significant levels of alkylation-type damage, seen as direct strand breaks and, with increasing time, DNA interstrand crosslinks
Human CLL lymphocytes; 0 hr after treatment
  DD-CL, interstrand DNA crosslinks: -0.18 frequency per 10^6 nucleotides
  DP-CL, DNA-protein crosslinks: 0.16 frequency per 10^6 nucleotides
Human CLL lymphocytes; 1 hr after treatment
  DD-CL, interstrand DNA crosslinks: -0.04 frequency per 10^6 nucleotides
  DP-CL, DNA-protein crosslinks: 0.17 frequency per 10^6 nucleotides
Human CLL lymphocytes; 3 hr after treatment
  DP-CL, DNA-protein crosslinks: 0.19 frequency per 10^6 nucleotides
[4]
  potency compared to adriamycin (more potent): 10 fold
  growth inhibitory activity: almost identical in vitro biological properties; also recorded: moderate to marked growth inhibitory activity
  IC50: 5 nM

## COc1cccc2c1C(=O)c1c(O)c3c(c(O)c1C2=O)C[C@@](O)(C(=O)CO)C[C@@H]3O[C@H]1C[C@H](NC(=O)N(CCCl)N=O)[C@@H](O)[C@H](C)O1 [AD 392, 2-chloroethylnitrosoureidoepirubicin]
Murine L1210 lymphocytes
  pattern of DNA damage: pattern of DNA damage consistent with both topoisomerase II inhibition and DNA-alkylatingaction
[2]
  clonogenic cell kill: essentially equipotent
  IC90: 530 nM
[5]; water or saline solution
  solubility: essentially insoluble in water or saline solution
[5]; water, of the order of, read-out: solubility in water
  solubility: < 25 µg/mL
DNA topoisomerase II
  enhancement of topoisomerase II-mediated DNA cleavage: no saturation of background cleavage
  DNA topoisomerase II-inhibitory and alkylating activity: clearly establish the DNA topoisomerase II-inhibitory activity and alkylating activity
[3]; relative to adriamycin-derived products
  chemical stability / tendency to decompose to oxazolidinone: improved chemical stability
[4]
  potency compared to adriamycin (more potent): 10 fold
  growth inhibitory activity: almost identical in vitro biological properties; also recorded: moderate to marked growth inhibitory activity
  IC50: 5 nM
